Concentration data for one compound are collected here from patent US20230312700A1, “TREATMENT OF A DISEASE OF THE GASTROINTESTINAL TRACT WITH A TNF INHIBITOR” (Progenity, Inc., priority 2018, published 2023).

The structures appear in SMILES notation.

This data set can be described thus: Example 10: tacrolimus tissue, plasma, rectal and GI content pharmacokinetics, oral vs intra-cecal ingestible device. More on the design: species or system Yorkshire-Cross farm swine. Conditions: female, Yorkshire-Cross, swine, in vivo, 0.09 mg/kg. The method, then: The primary objective of this study was to compare the tissue, plasma, rectal sample, and GI content pharmacokinetics of tacrolimus through oral versus intra-cecal ingestible device delivery in normal Yorkshire-Cross farm swine.
No further randomization procedure was employed.
Animals in Group 1 received an ingestible device containing 0.8 mL of vehicle solution (80% alcohol, 20% HCO-60). Animals in Group 2 received orally […] liquid formulation of tacrolimus at 4 mg/0.8 mL per animal (Prograf: 5 mg/mL). Animals in Group 3 received intra-cecally an ingestible device containing tacrolimus at 1 mg in 0.8 mL per ingestible device. […]
Approximately 200-400 mg of rectal content were collected, if available, with a fecal swab (Copan Diagnostics Nylon Flocked Dry Swabs, 502CS01). The fecal swab was pre-weighed and weighed after collection in the collection tube (Sterile Tube and Cap No Media, PFPM913S), and the sample weight was recorded. […]
For tissue necropsy, small intestine fluid and cecal fluid were collected separately from all the animals into two separate square plastic bottles, and stored at −20° C. The length and diameter of the cecum and the colon was measured from one animal in each group and recorded for reference. […] All samples were weighed, and the tissue sample weights were recorded. […]

Turning to `C=CC[C@@H]1/C=C(\C)C[C@H](C)C[C@H](OC)[C@H]2O[C@@](O)(C(=O)C(=O)N3CCCC[C@H]3C(=O)O[C@H](/C(C)=C/[C@@H]3CC[C@@H](O)[C@H](OC)C3)[C@H](C)[C@@H](O)CC1=O)[C@H](C)C[C@@H]2OC` [tacrolimus], the concentration at 12 h was found to be 4.38 ± 0.516 ng/mL.
